Measured values taken from US9255107B2 (NANJING SANHOME PHARMACEUTICAL CO., LTD., priority 2012, dated 2016).

What was measured:
K562 leukemia cells = test: MTT assay, in vitro inhibitory activity on cells; type: cell-based; details: Homo sapiens, typically 48 hours, read-out: IC50 K562 Chronic myelogenous leukemia cells
Source text: (§1) In this example, MTT assay was used to detect in vitro inhibitory activity of the compounds prepared according to the above examples on the cells.
(§2) Dimethyl sulfoxide (DMSO) is capable of dissolving formazan in cells, and absorbance value can be measured at a wavelength of 490 nm by an enzyme-linked immunometric meter, which reflects the number of living cells. Within a certain range of the number of cells, the amount of MTT crystals formed is proportional to the number of living cells.
(§3) 2. Culturing in a 37° C., 5% CO2 incubator and keeping the cells adhering to the walls of the wells.
(§4) 4. Carefully removing the supernatant, gently washing with PBS and discarding the supernatant again.
(§5) 6. Terminating culturing and carefully discarding the medium in each well. 7. Adding 150 μl dimethyl sulfoxide into each well, shaking for 10 minutes at low speed in a shaker, to make crystals fully dissolved.
(§6) 8. Measuring the absorbance of each well at 490 nm by an enzyme-linked immunometric meter.

Human ABL1 (T315I) = Human ABL1 (T315I) (Homo sapiens (Human), UniProt P00519, T315I); test: ABL1 (T315I) kinase activity assay ([γ-33P] ATP, Abltide); type: biochemical; details: 1.0 μM ATP, 5.0 μM Abltide, 120 minutes
Method: In the experimental example, the compounds prepared according the examples of the present invention were tested for the ability to inhibit ABL (T315I) kinase activity. […] Kinase activity was determined according to the manufacturer's instructions. Peptide substrate is Abltide ([…]), purchased from Millipore Corporation, USA. Ion exchange chromatography paper P81 (ion exchange filter paper) was purchased from Whatman Company, UK. [γ-33P] ATP was purchased from Perkin Elmer Company. […] [γ-33P] ATP was added at room temperature, with final concentration of 1.0 μM, and the reaction was performed for 120 minutes. 20 μl aliquots were transferred onto the ion exchange chromatography paper P81. […] Finally, γ-33P radioactivity was measured.

[1] = system: MDA-MB-231 human breast cancer cells; test: MTT assay, in vitro inhibitory activity on cells; type: cell-based; details: typically 48 hours
Source text: as §1, §2, §3, §4, §5, §6

[2] = system: MEG-01 human megakaryocyte leukemia cells; test: CellTiter-Glo cell viability assay, Bcr-Abl-positive cells; details: MEG-01, 72 h, read-out: IC50 MEG-01
Method: (§7) The resulting solutions were 10-fold serially diluted and formulated into 10 concentrations.
(§8) MEG-01 human megakaryocyte leukemia cells and KU812 human peripheral blood basophilic leukocytes, purchased from ATCC Company, USA.
(§9) The peripheral wells were filled with sterile PBS;
(§10) 2) Adding 10 μl of 5× concentration gradient of the tested compound, and adding 10 μl medium containing 0.5% DMSO into the blank control wells, in which the concentration of DMSO was 0.1%;
(§11) 3) Incubating the cells in a 37° C./5% CO2 incubator;
(§12) 4) Adding 30 μl Cell Titer-Glo® Reagent 72 hours after adding the compound;
(§13) 5) Incubating in a 37° C./5% CO2 incubator for 10 minutes; and centrifuging at low speed and then measuring chemiluminescence values on a PHERAstar microplate reader.
(§14) 6) Calculating cell viability (Cell Viability=(RLUsample/RLUnegative)×100%, wherein RLUsample was RLU (Relative Light Units) value of the well added with the compound and RLUnegative was RLU value of the well without the compound (i.e., cell control, which was treated with the same concentration of DMSO)). Data were processed by using a four-parameter logistic fitting module in Graphpad Prism 4.0 software to calculate IC50.

[3] = system: KU812 human peripheral blood basophilic leukocytes; test: as above; details: KU812, 72 h, read-out: IC50 KU812
Method: as §7, §8, §9, §10, §11, §12, §13, §14

[4] = system: Ovcar-3 human ovarian cancer cells; test: MTT assay, in vitro inhibitory activity on cells; type: cell-based; details: typically 48 hours
Source text: as §1, §2, §3, §4, §5, §6

[5] = system: Saos-2 human osteosarcoma cells; test: MTT assay, in vitro inhibitory activity on cells; type: cell-based; details: typically 48 hours
Source text: as §1, §2, §3, §4, §5, §6

SMILES	IC50 (K562 leukemia cells) [nM]	IC50 (Human ABL1 (T315I)) [nM]	IC50 [1] [nM]	IC50 [2] [nM]	IC50 [3] [nM]	IC50 [4] [nM]	IC50 [5] [nM]
Cc1ccc(C(=O)Nc2ccc(CN3CCN(C)CC3)c(C(F)(F)F)c2)cc1C#Cc1ccn2nc(N(C)C)nc2c1 [Example 6, 3-((2-dimethylamino-[1,2,4]triazolo[1,5-a]pyridin-7-yl)ethynyl)-4-methyl-N-[4-((4-methylpiperazin-1-yl)methyl)-3-trifluoromethylphenyl]benzamide]	4160	39.4	–	–	–	–	–
Cc1ccc(C(=O)Nc2ccc(CN3CCN(C)CC3)c(C(F)(F)F)c2)cc1C#Cc1ccn2nc(N)nc2c1 [Example 4, 3-((2-amino-[1,2,4]triazolo[1,5-a]pyridin-7-yl)ethynyl)-4-methyl-N-[4-((4-methylpiperazin-1-yl)methyl)-3-trifluoromethylphenyl]benzamide]	13500	–	1060	3.28	0.789	–	–
Cc1ccc(C(=O)Nc2ccc(CN3CCN(C)CC3)c(C(F)(F)F)c2)cc1C#Cc1ccc(-c2ncc(C(F)(F)F)[nH]2)nc1 [Example 18, 4-methyl-3-((2-(5-trifluoromethyl-1H-imidazol-2-yl)pyridin-5-yl)ethynyl)-N-[4-((4-methylpiperazin-1-yl)methyl)-3-trifluoromethylphenyl]benzamide]	1430	57.9	–	–	–	–	–
Cc1ccc(C(=O)Nc2ccc(CN3CCN(C)CC3)c(C(F)(F)F)c2)cc1C#Cc1cn(C)c(-c2ncc(C(F)(F)F)[nH]2)n1 [Example 9, 4-methyl-3-((1-methyl-5′-trifluoromethyl-1H,1′H-[2,2′-diimidazol]-4-yl)ethynyl)-N-[4-((4-methylpiperazin-1-yl)methyl)-3-trifluoromethylphenyl]benzamide]	330	6.45	5080	–	–	6500	1160
Cc1ccc(C(=O)Nc2ccc(CN3CCN(C)CC3)c(C(F)(F)F)c2)cc1C#Cc1ccc(-c2ncc[nH]2)nc1 [Example 19, 4-methyl-3-((2-(1H-imidazol-2-yl)pyridin-5-yl)ethynyl)-N-[4-((4-methylpiperazin-1-yl)methyl)-3-trifluoromethylphenyl]benzamide]	4520	6.81	3010	–	–	–	–
Cc1ccc(C(=O)Nc2ccc(CN3CCN(C)CC3)c(C(F)(F)F)c2)cc1C#Cc1cnc2[nH]ccc2n1 [Example 3]	6330	2.12	180	1.38	0.395	2850	380
CNc1nc2cc(C#Cc3cc(C(=O)Nc4ccc(CN5CCN(C)CC5)c(C(F)(F)F)c4)ccc3C)ccn2n1 [Example 5, 3-((2-methylamino-[1,2,4]triazolo[1,5-a]pyridin-7-yl)ethynyl)-4-methyl-N-[4-((4-methylpiperazin-1-yl)methyl)-3-trifluoromethylphenyl]benzamide]	6790	2.28	2150	1.76	0.633	–	–
